Laboratory results published in patent publication US20070092551A1, “Therapeutic agent” (TAKARA BIO INC., priority 2003, published 2007).

What was measured:
[1] = Toxicity test, forcible oral administration for 3 consecutive days; format: in vivo; conditions: female ICR mice, 1 g/kg forcibly orally once a day for 3 days, in CMC or olive oil
Description: The influence of 4-hydroxyderricin and xanthoangelol by forcible oral administration for 3 consecutive days was examined using female 12-week old ICR mice (Japan SLC, Inc.). 4-Hydroxyderricin or xanthoangelol was suspended or dissolved in a 0.5% (w/v) carboxymethyl cellulose solution (CMC) or an olive oil so as to have a concentration of 20% (w/v). The suspension or solution was forcibly orally administered once a day for 3 days in an amount of 5 mL per 1 kg body weight (1 g/kg in terms of 4-hydroxyderricin or xanthoangelol). Three cases were used for each group.

[2] = tested on: mature adipocytes (3T3-L1 cells); experiment: Synergistic action of 4-hydroxyderricin and insulin to enhance glucose uptake; format: cell-based
Description: As the evaluation of synergistic action of 4-hydroxyderricin prepared in Example 2 and a low-concentration insulin to enhance glucose uptake, the amount of 2-deoxyglucose uptake into mature adipocytes during the stimulation with the sample was determined partly in accordance with the method described in Example 83.
The mature adipocytes were prepared according to the method described in item (1) of Example 83.
After the termination of the culture, the medium was removed, and the cells were washed twice with a 0.1% (w/v) bovine serum albumin (manufactured by Sigma, A8022)-containing Dulbecco's modified Eagle's medium. Thereafter, 1 mL of the same medium containing a solution of 4-hydroxyderricin in dimethyl sulfoxide having a final concentration of 5 μM was added thereto. The cells were cultured overnight at 37° C. in the presence of 5% carbon dioxide gas. Here, a group without addition of 4-hydroxyderricin was set as a negative control. After the overnight culture, the cells were washed twice with a HEPES buffered saline (140 mM NaCl, 5 mM KCl, 2.5 mM MgSO4, 1 mM CaCl2, 20 mM HEPES-Na (pH 7.4)). The amount 0.9 mL of the same buffer containing 4-hydroxyderricin having a final concentration of 5 μM was added thereto. […] Thereafter, 2-deoxy-[1,2-^3H(N)]-glucose subjected to uptake into the adipocytes was determined in the same manner as the method described in item (2) of Example 83.

[3] = tested on: type II diabetes model mouse; experiment: Glucose tolerance test, 4-hydroxyderricin and combined use with xanthoangelol; format: in vivo; conditions: male KK-Ay mice
Description: Amelioration effects for glucose tolerance by 4-hydroxyderricin and combined use of 4-hydroxyderricin and xanthoangelol were examined using a type II diabetes model mouse. Experiments were carried out with five male 12-week old KK-Ay mice (CLEA Japan, Inc.) per group. 4-Hydroxyderricin which was previously suspended or dissolved in an olive oil so as to have a concentration of 4% (w/v) was forcibly orally administered to a group to be administered with 4-hydroxyderricin at 200 mg/kg once a day for consecutive days. 4-Hydroxyderricin and xanthoangelol which were each suspended or dissolved in an olive oil to 4% (w/v) were mixed in equal volumes, and the mixture was forcibly orally administered to a group to be administered with a combined use of 4-hydroxyderricin and xanthoangelol once a day for consecutive days so that each administration concentration became 100 mg/kg. An olive oil was administered to the mice in the control group at 5 mL/kg in the same manner. The mice were fasted over one night spanning from the fifteenth day to the sixteenth day from administration, and a glucose tolerance test was carried out. Four hours after the administration of the sample, a 10% glucose solution was intraperitoneally administered at 1 g/kg. Thirty minutes before glucose tolerance and 30 minutes after the tolerance, blood was collected from veins of the tail, and the blood glucose level was determined with a simple blood glucose meter, ACCU-CHEK Compact (Roche Diagnostic K.K.).

[4] = tested on: type II diabetes model mice; experiment: Suppressive effects on incidence of diabetes (blend feed); format: in vivo, KK-Ay mice; conditions: 0.15% blend feed; for Blood Glucose Level, Previous Day: male 5-week old KK-Ay mice, day before beginning of administration; for Blood Glucose Level, Previous Day / Amount of Drunk Water, Ninth to Fifteenth Day / Amount of Drunk Water, Second to Eighth Day / Blood Glucose Level, Fifteenth Day: mean ± standard error; for effects for suppressing the incidence of diabetes (in words) / changes in body weight, amount of feed taken and general symptoms / Amount of Drunk Water, Ninth to Fifteenth Day / Amount of Drunk Water, Second to Eighth Day / Blood Glucose Level, Fifteenth Day: male KK-Ay mice; for changes in body weight, amount of feed taken and general symptoms: experimental period
Description: The suppressive effects of xanthoangelol and 4-hydroxyderricin on incidence of diabetes were examined using type II diabetes model mice. Experiments were carried out with seven male 5-week old KK-Ay mice (CLEA Japan, Inc.) per group. Xanthoangelol and 4-hydroxyderricin were each mixed in a powder feed (CE-2: CLEA Japan, Inc.) so as to have a ratio of 0.15%, and the mice were fed with the blended power feed. The mice in the control group were fed with the powder feed (CE-2). On the day before the beginning of administration, and on the fifteenth day, the blood glucose level was determined in the same manner as in Example 88. In addition, as an index of the incidence of diabetes, amounts of drunk water from the second to eighth days and from the ninth to fifteenth days from the administration were determined, and an average amount of drunk water per day was calculated, respectively. By administration of a mixed feed with xanthoangelol or 4-hydroxyderricin, the suppression of increase in a blood glucose level was found. Further, the suppression of increase in the amount of drunk water which is an index of the incidence of diabetes was found. […] During the experimental period, no changes were found in body weight, amount of feed taken and general symptoms.

[5] = tested on: mature adipocytes (3T3-L1 cells); experiment: Glucose uptake enhancement inhibited by cytochalasin B; format: cell-based
Description: The influence of cytochalasin B on 2-deoxyglucose uptake into matured adipocytes during the stimulation with the sample in the adipocytes was tested in accordance with the method shown in Example 83 on whether or not the enhancing action of 4-hydroxyderricin on glucose uptake shown in Example 83 is inhibited by cytochalasin B, which is an inhibitor of a glucose transporter.
Specifically, as a sample, a group with addition of a dimethyl sulfoxide solution of 4-hydroxyderricin so as to have a final concentration of 7.8 μM was set. Here, there were set a group without addition of the sample as a negative control and a group with addition of insulin so as to have a final concentration of 1 μg/mL as a positive control. Furthermore, there was set a group with addition of cytochalasin B (manufactured by nacalai tesque, 10435-81) to each group so as to have a final concentration of 40 μM in the same time as the time of addition of insulin. Thereafter, 2-deoxy-[1,2-^3H(N)]-glucose subjected to uptake into the adipocytes was determined in the same manner.

| SMILES | cases of death [1] | change in general symptom [1] | 2-deoxy-[1,2-3H(N)]-glucose uptake on addition simultaneously with insulin ([2]; 4-hydroxyderricin 5 μM + insulin 0.01 μg/mL, versus each alone) | 2-deoxy-[1,2-3H(N)]-glucose uptake ([2]; 4-hydroxyderricin 5 μM alone, compared to the negative control) | amelioration effects for glucose tolerance (in words) ([3]; 4-hydroxyderricin 200 mg/kg alone or combined use 100 mg/kg each) | Blood Glucose Level, Before Glucose Tolerance ([3]; 200 mg/kg oral once a day, sixteenth day, fasted, 30 minutes before glucose 1 g/kg i.p.) [mg/dL] | Blood Glucose Level, 30 Minutes After Tolerance ([3]; 200 mg/kg oral once a day, sixteenth day, fasted, glucose 1 g/kg i.p.) [mg/dL] | Blood Glucose Level, Previous Day [4] [mg/dL] | effects for suppressing the incidence of diabetes (in words) [4] | changes in body weight, amount of feed taken and general symptoms [4] | Amount of Drunk Water, Ninth to Fifteenth Day [4] [mL/day] | Amount of Drunk Water, Second to Eighth Day [4] [mL/day] | Blood Glucose Level, Fifteenth Day [4] [mg/dL] | 2-deoxy-[1,2-3H(N)]-glucose uptake ([5]; 4-hydroxyderricin 7.8 μM, compared to the negative control) | 2-deoxy-[1,2-3H(N)]-glucose uptake on addition of cytochalasin B ([5]; cytochalasin B 40 μM added to the 4-hydroxyderricin 7.8 μM, insulin 1 μg/mL and negative control groups) |
| --- | --- | --- | --- | --- | --- | --- | --- | --- | --- | --- | --- | --- | --- | --- | --- |
| COc1ccc(C(=O)/C=C/c2ccc(O)cc2)c(O)c1CC=C(C)C [4-Hydroxyderricin, 4,2′-Dihydroxy-3′-prenyl-4′-methoxychalcone] | No cases of death | no change | synergistically increasing the enhancing activity on glucose uptake | enhancement of 2-deoxy-[1,2-^3H(N)]-glucose uptake | amelioration effects for glucose tolerance were found | 93 ± 2 | 224 ± 11 | 226 ± 14 | effects for suppressing the incidence of diabetes was found | no changes | 10.0 ± 0.6 | 7.6 ± 0.2 | 354 ± 24 | enhancement of 2-deoxy-[1,2-^3H(N)]-glucose uptake | almost completely inhibited |
| CC(C)=CCC/C(C)=C/Cc1c(O)ccc(C(=O)/C=C/c2ccc(O)cc2)c1O [Xanthoangelol, 4,2′,4′-Trihydroxy-3′-geranylchalcone] | No cases of death | no change | – | – | – | – | – | 232 ± 11 | effects for suppressing the incidence of diabetes was found | no changes | 14.6 ± 2.0 | 10.3 ± 1.3 | 426 ± 39 | – | – |
